# Patent US20100267561A1, “HERBICIDAL PYRIDAZINONE DERIVATIVES” (priority 2007, published 2010)
# Where two headings read alike, the source gives them in different places.
# Columns and labels:
# Assay in all cases: Test B pre-/postemergence plant response
# Assay type in all cases: in vivo
# [1] = test system: blackgrass (Alopecurus myosuroides); details: for pest or weed control at 31 g/ha: 31 g ai/ha; for pest or weed control at 62 g/ha: 62 g ai/ha, 100 complete control
# Method in brief: (§1)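 Visual scoring from 0 (no effect) to 100 (complete control) against untreated controls was done 13 to 15 days after greenhouse treatment. Chemicals were formulated in a surfactant-containing non-phytotoxic solvent and applied to soil preemergence or to 1- to 4-leaf (2-18 cm) plants postemergence.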
# [2] = test system: cocklebur (Xanthium strumarium); details: for pest or weed control at 31 g/ha: 31 g ai/ha; for pest or weed control at 62 g/ha: 62 g ai/ha, 100 complete control
# Method in brief: as §1
# [3] = test system: yellow nutsedge (Cyperus esculentus); details: for pest or weed control at 31 g/ha / pest or weed control at 62 g/ha: Cyperus, read-out: Plant response rating, Nutsedge, Yellow; for pest or weed control at 31 g/ha: 31 g ai/ha; for pest or weed control at 62 g/ha: 62 g ai/ha, 100 complete control
# Method in brief: as §1
# [4] = test system: Russian thistle (Salsola iberica); details: Preemergence
# Method in brief: as §1
# [5] = test system: morningglory (Ipomoea coccinea); details: for pest or weed control at 31 g/ha / pest or weed control at 62 g/ha: Ipomoea, read-out: Plant response rating, Morningglory; for pest or weed control at 31 g/ha: 31 g ai/ha; for pest or weed control at 62 g/ha: 62 g ai/ha, 100 complete control
# Method in brief: as §1
# [6] = test system: bermudagrass (Cynodon dactylon); details: for pest or weed control at 31 g/ha: 31 g ai/ha; for pest or weed control at 62 g/ha: 62 g ai/ha, 100 complete control
# Method in brief: as §1
# [7] = test system: corn (Zea mays); details: for Corn plant response rating (crop injury, 0 = no effect, 100 = complete kill) at 31 g/ha: 31 g ai/ha; for Corn plant response rating (crop injury, 0 = no effect, 100 = complete kill) at 62 g/ha: 62 g ai/ha, 100 complete control
# Method in brief: as §1
# [8] = test system: wheat (Triticum aestivum); details: for plant injury at 31 g/ha / plant injury at 62 g/ha: Triticum aestivum, read-out: Plant response rating, Wheat; for plant injury at 31 g/ha: 31 g ai/ha; for plant injury at 62 g/ha: 62 g ai/ha, 100 complete control
# Method in brief: as §1
# [9] = test system: catchweed bedstraw (Galium aparine); details: Preemergence
# Method in brief: as §1
# [10] = test system: surinam grass (Brachiaria decumbens); details: for pest or weed control at 31 g/ha / pest or weed control at 62 g/ha: Urochloa decumbens, read-out: Plant response rating, Surinam Grass; for pest or weed control at 31 g/ha: 31 g ai/ha; for pest or weed control at 62 g/ha: 62 g ai/ha, 100 complete control
# Method in brief: as §1
# [11] = test system: soybean (Glycine max); details: for plant injury at 31 g/ha / plant injury at 62 g/ha: Glycine max, read-out: Plant response rating, Soybean; for plant injury at 31 g/ha: 31 g ai/ha; for plant injury at 62 g/ha: 62 g ai/ha, 100 complete control
# Method in brief: as §1
# [12] = test system: lambsquarters (Chenopodium album); details: for pest or weed control at 31 g/ha / pest or weed control at 62 g/ha: Chenopodium album, read-out: Plant response rating, Lambsquarters; for pest or weed control at 31 g/ha: 31 g ai/ha; for pest or weed control at 62 g/ha: 62 g ai/ha, 100 complete control
# Method in brief: as §1
# [13] = test system: downy bromegrass (Bromus tectorum); details: for pest or weed control at 31 g/ha: 31 g ai/ha
# Method in brief: as §1
# [14] = 8 g ai/ha, postemergence, 0-100 scale
# [15] = Preemergence, 8 g ai/ha, scale 0 to 100 (0 no effect, 100 complete control)
# [16] = Preemergence, 16 g ai/ha, scale 0 to 100
# [17] = 16 g ai/ha, postemergence, 0-100 scale
# [18] = post-emergence, Postemergence, scale 0 to 100
# [19] = post-emergence, Postemergence, scale 0 to 100, 0 no effect
# [20] = pre-emergence, Preemergence, scale 0 to 100 (0 no effect, 100 complete control)
# [21] = pre-emergence, Preemergence, 0 to 100 scale, 0 no effect
# [22] = 8 g ai/ha, scale 0 to 100 (0 no effect, 100 complete control)
smiles,measurement,setting,value
"Cc1cc(-c2ccc(Br)cc2)nn1-c1c(OC(=O)C2CC2)cnn(C(=O)C2CC2)c1=O [Compound 80, 5-[3-(4-bromophenyl)-5-methyl-1H-pyrazol-1-yl]-1-(cyclopropylcarbonyl)-1,6-dihydro-6-oxo-4-pyridazinyl cyclopropanecarboxylate]",Blackgrass plant response rating,[1]; [14],80
same,pest or weed control at 16 g/ha,"[1]; Alopecurus myosuroides, post-emergence, Postemergence, 16 g ai/ha, scale 0 to 100, read-out: Plant response rating, Blackgrass",85%
same,pest or weed control at 31 g/ha,"[1]; Alopecurus myosuroides, post-emergence, Postemergence, scale 0 to 100, read-out: Plant response rating, Blackgrass",95%
same,pest or weed control at 62 g/ha,"[1]; Alopecurus myosuroides, post-emergence, Postemergence, scale 0 to 100, 0 no effect, read-out: Plant response rating, Blackgrass",100%
same,pest or weed control at 31 g/ha,"[1]; Alopecurus myosuroides, pre-emergence, Preemergence, scale 0 to 100 (0 no effect, 100 complete control), read-out: Plant response rating, Blackgrass",100%
same,pest or weed control at 62 g/ha,"[1]; Alopecurus myosuroides, pre-emergence, Preemergence, 0 to 100 scale, 0 no effect, read-out: Plant response rating, Blackgrass",100%
same,Blackgrass plant response rating,[1]; [15],70
same,Blackgrass plant response rating,[1]; [16],70
same,Cocklebur plant response rating,[2]; [14],0
same,Cocklebur plant response rating,[2]; [15],0
same,Cocklebur plant response rating,[2]; [16],0
same,pest or weed control at 16 g/ha,"[2]; Xanthium strumarium, post-emergence, Postemergence, 16 g ai/ha, scale 0 to 100, read-out: Plant response rating, Cocklebur",0%
same,pest or weed control at 31 g/ha,"[2]; Xanthium strumarium, post-emergence, Postemergence, scale 0 to 100, read-out: Plant response rating, Cocklebur",0%
same,pest or weed control at 62 g/ha,"[2]; Xanthium strumarium, post-emergence, Postemergence, scale 0 to 100, 0 no effect, read-out: Plant response rating, Cocklebur",0%
same,pest or weed control at 31 g/ha,"[2]; Xanthium strumarium, pre-emergence, Preemergence, scale 0 to 100 (0 no effect, 100 complete control), read-out: Plant response rating, Cocklebur",0%
same,pest or weed control at 62 g/ha,"[2]; Xanthium strumarium, pre-emergence, Preemergence, 0 to 100 scale, 0 no effect, read-out: Plant response rating, Cocklebur",0%
same,"Nutsedge, Yellow plant response rating",[3]; [14],0
same,"Nutsedge, Yellow plant response rating",[3]; [17],0
same,pest or weed control at 31 g/ha,[3]; [18],0%
same,pest or weed control at 62 g/ha,[3]; [19],0%
same,pest or weed control at 31 g/ha,[3]; [20],0%
same,pest or weed control at 62 g/ha,[3]; [21],100%
same,"Nutsedge, Yellow plant response rating",[3]; [15],0
same,"Nutsedge, Yellow plant response rating",[3]; [16],0
same,Russian Thistle plant response rating,[4]; [22],0
same,"Plant response rating, Russian Thistle","[4]; 31 g ai/ha, scale 0 to 100 (0 no effect, 100 complete control)",0
same,"Plant response rating, Russian Thistle","[4]; 62 g ai/ha, 0 to 100 scale, 0 no effect, 100 complete control",0
same,Russian Thistle plant response rating,"[4]; 16 g ai/ha, scale 0 to 100",0
same,Morningglory plant response rating,[5]; [14],0
same,Morningglory plant response rating,[5]; [17],0
same,pest or weed control at 31 g/ha,[5]; [18],0%
same,pest or weed control at 62 g/ha,[5]; [19],0%
same,pest or weed control at 31 g/ha,[5]; [20],0%
same,pest or weed control at 62 g/ha,[5]; [21],0%
same,Morningglory plant response rating,[5]; [15],0
same,Morningglory plant response rating,[5]; [16],0
same,Bermudagrass plant response rating,[6]; [14],85
same,pest or weed control at 16 g/ha,"[6]; Cynodon dactylon, post-emergence, Postemergence, 16 g ai/ha, scale 0 to 100, read-out: Plant response rating, Bermudagrass",95%
same,pest or weed control at 31 g/ha,"[6]; Cynodon dactylon, post-emergence, Postemergence, scale 0 to 100, read-out: Plant response rating, Bermudagrass",100%
same,pest or weed control at 62 g/ha,"[6]; Cynodon dactylon, post-emergence, Postemergence, scale 0 to 100, 0 no effect, read-out: Plant response rating, Bermudagrass",100%
same,pest or weed control at 31 g/ha,"[6]; Cynodon dactylon, pre-emergence, Preemergence, scale 0 to 100 (0 no effect, 100 complete control), read-out: Plant response rating, Bermudagrass",100%
same,pest or weed control at 62 g/ha,"[6]; Cynodon dactylon, pre-emergence, Preemergence, 0 to 100 scale, 0 no effect, read-out: Plant response rating, Bermudagrass",100%
same,Bermudagrass plant response rating,[6]; [15],50
same,Bermudagrass plant response rating,"[6]; Preemergence, 16 g ai/ha, scale 0 to 100 (0 no effect, 100 complete control)",100
same,Corn plant response rating,[7]; [14],100
same,Corn plant response rating,[7]; [15],20
same,Corn plant response rating,[7]; [16],85
same,"Corn plant response rating (crop injury, 0 = no effect, 100 = complete kill) at 16 g/ha","[7]; Zea mays, post-emergence, Postemergence, 16 g ai/ha, scale 0 to 100",100%
same,"Corn plant response rating (crop injury, 0 = no effect, 100 = complete kill) at 31 g/ha","[7]; Zea mays, post-emergence, Postemergence, scale 0 to 100",100%
same,"Corn plant response rating (crop injury, 0 = no effect, 100 = complete kill) at 62 g/ha","[7]; Zea mays, post-emergence, Postemergence, scale 0 to 100, 0 no effect",100%
same,"Corn plant response rating (crop injury, 0 = no effect, 100 = complete kill) at 31 g/ha","[7]; Zea mays, pre-emergence, Preemergence, scale 0 to 100 (0 no effect, 100 complete control)",98%
same,"Corn plant response rating (crop injury, 0 = no effect, 100 = complete kill) at 62 g/ha","[7]; Zea mays, pre-emergence, Preemergence, 0 to 100 scale, 0 no effect",100%
same,Wheat plant response rating,[8]; [14],35
same,Wheat plant response rating,[8]; [17],85
same,Wheat plant response rating,[8]; [15],0
same,Wheat plant response rating,[8]; [16],20
same,plant injury at 31 g/ha,[8]; [18],95%
same,plant injury at 62 g/ha,[8]; [19],98%
same,plant injury at 31 g/ha,[8]; [20],60%
same,plant injury at 62 g/ha,[8]; [21],95%
same,pest or weed control at 31 g/ha,"[9]; Galium aparine, pre-emergence, 31 g ai/ha, scale 0 to 100 (0 no effect, 100 complete control), read-out: Plant response rating, Galium",0%
same,pest or weed control at 62 g/ha,"[9]; Galium aparine, pre-emergence, 62 g ai/ha, 0 to 100 scale, 0 no effect, 100 complete control, read-out: Plant response rating, Galium",0%
same,Galium plant response rating,[9]; [22],0
same,Galium plant response rating,"[9]; 16 g ai/ha, scale 0 to 100",0
same,Surinam Grass plant response rating,[10]; [14],95
same,Surinam Grass plant response rating,[10]; [17],100
same,Surinam Grass plant response rating,[10]; [15],0
same,Surinam Grass plant response rating,[10]; [16],65
same,pest or weed control at 31 g/ha,[10]; [18],100%
same,pest or weed control at 62 g/ha,[10]; [19],100%
same,pest or weed control at 31 g/ha,[10]; [20],98%
same,pest or weed control at 62 g/ha,[10]; [21],100%
same,Soybean plant response rating,[11]; [14],0
same,Soybean plant response rating,[11]; [17],0
same,plant injury at 31 g/ha,[11]; [18],15%
same,plant injury at 62 g/ha,[11]; [19],20%
same,plant injury at 31 g/ha,[11]; [20],0%
same,plant injury at 62 g/ha,[11]; [21],0%
same,Soybean plant response rating,[11]; [15],0
same,Soybean plant response rating,[11]; [16],0
same,Lambsquarters plant response rating,[12]; [14],0
same,Lambsquarters plant response rating,[12]; [17],0
same,pest or weed control at 31 g/ha,[12]; [18],0%
same,pest or weed control at 62 g/ha,[12]; [19],0%
same,pest or weed control at 31 g/ha,[12]; [20],0%
same,pest or weed control at 62 g/ha,[12]; [21],0%
same,Lambsquarters plant response rating,[12]; [15],0
same,Lambsquarters plant response rating,[12]; [16],0
same,"Bromegrass, Downy plant response rating",[13]; [14],40
same,pest or weed control at 16 g/ha,"[13]; Bromus tectorum, post-emergence, Postemergence, 16 g ai/ha, scale 0 to 100, read-out: Plant response rating, Bromegrass, Downy",45%
same,pest or weed control at 31 g/ha,"[13]; Bromus tectorum, post-emergence, Postemergence, scale 0 to 100, read-out: Plant response rating, Bromegrass, Downy",90%
same,pest or weed control at 31 g/ha,"[13]; Bromus tectorum, pre-emergence, Preemergence, scale 0 to 100 (0 no effect, 100 complete control), read-out: Plant response rating, Bromegrass, Downy",85%
same,pest or weed control at 62 g/ha,"[13]; Bromus tectorum, pre-emergence, Preemergence, 62 g ai/ha, 0 to 100 scale, 0 no effect, 100 complete control, read-out: Plant response rating, Bromegrass, Downy",85%
same,"Bromegrass, Downy plant response rating",[13]; [15],0
same,"Bromegrass, Downy plant response rating",[13]; [16],30
